Laboratory results reported in patent publication US20230303647A1, “CYCLIC CHEMERIN-9 DERIVATIVES” (priority 2020, published 2023).
Entries after “also recorded” stand apart in the source; their conditions may differ. Where a SMILES comes first, the peptide text is derived from it. Bridges are numbered along the chain shown (N, C = ends). [ ]: non-standard residue; d: D form. d(hCys) = N[C@H](CCS)C(=O)O

Columns and labels:
CMKLR1 [1] = target: T1, CMKLR1 (Homo sapiens, UniProt Q99788); assay: Ca2+ mobilization assay (G protein-mediated signaling)
T1 sequence (Q99788 1-373): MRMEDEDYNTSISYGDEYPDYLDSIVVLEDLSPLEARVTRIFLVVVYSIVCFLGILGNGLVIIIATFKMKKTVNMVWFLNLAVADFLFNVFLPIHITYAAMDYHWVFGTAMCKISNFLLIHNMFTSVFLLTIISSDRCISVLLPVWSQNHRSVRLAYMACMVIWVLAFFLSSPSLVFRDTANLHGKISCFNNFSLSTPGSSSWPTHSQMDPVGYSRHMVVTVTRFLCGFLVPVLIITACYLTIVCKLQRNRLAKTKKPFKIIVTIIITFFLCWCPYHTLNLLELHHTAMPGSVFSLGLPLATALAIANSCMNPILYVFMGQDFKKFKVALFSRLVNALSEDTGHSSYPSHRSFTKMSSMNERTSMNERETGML
Method: COS-7 cells were transfected in 75 cm^2 cell culture flasks with 12 μg of the hCMKLR1_eYFP_GαΔ6qi4myr_pV2 plasmid overnight using Metafectene Pro. Transfected cells were seeded in 96 well plates (100 μL cell suspension in DMEM+10% FBS/well) and incubated overnight. The following day, the Ca^2+-mobilization was performed as described previously. […] All experiments were performed in triplicates, each experiment was repeated at least twice. Nonlinear regression was calculated using GraphPad Prism 5.

CMKLR1 [2] = target: T1, CMKLR1; assay: BRET-based arrestin 3 recruitment assay; settings: BRET, compared with chemerin-9
Method: HEK293 cells were transiently transfected using 75 cm^2 cell culture flasks with cell monolayers (confluency of ˜80%). Plasmid DNA of the C-terminally eYFP tagged human CMKLR1 and the chimeric G protein GαΔ6qi4myr in a pVitro2 vector (7.8 μg) and Renilla-luciferase 8-tagged Arrestin 3 in pcDNA3 (0.2 μg) and 24 μl MetafectenePro were separately added to 900 μl DMEM/Ham's F12 and incubated for 10 min before unification and incubation at RT for 20 min. […] The plasmid solution was added and cells were incubated overnight before seeding. Cell seeding was carried out in white 96-well polystyrene cell culture microplates, coated with poly-D lysine. […] Afterwards, the cells were incubated overnight at 37° C. The assay was performed under unsterile conditions. […] Afterwards, the cells were stimulated with the peptides in different concentrations (10^−5 to 10^−12 M) dissolved in BRET buffer. 50 μl of the peptide dilution were used for cell stimulation. Buffer without peptide was used as a negative control. […] The values of the negative control were subtracted, non-linear regression was calculated using GraphPad Prism. […] All measurements were performed in four technical replicates, all experiments were repeated at least twice.
The bioluminescence resonance energy transfer (BRET) assay was used to determine the potency of cyclic chemerin variants to recruit arrestin 3 to the CMKLR1 receptor after stimulation. HEK293 cells were transiently transfected with CMKLR1 receptor fused with eYFP fluorophore and Arrestin 3 tagged with Rluc8 luciferase. The transfected cells were seeded, incubated with the luciferase substrate coelenterazine-h and stimulated with different peptide concentrations, resulting in measurable BRET signals.

CMKLR1 [3] = target: T1, CMKLR1; assay: Fluorescence microscopy of CMKLR1 internalization and arrestin 3 recruitment; format: cell-based; parameters: expressed in transfected cells; host or cells: HEK293; settings: HEK293 cells, 1 μM peptide, 30 min stimulation
Method: Ibidi 15μ-slides were coated with poly D-lysine before cell seeding. Cells were washed with DPBS prior to detachment with 1 ml trypsin/EDTA. […] The cell suspension was diluted to 140,000 cells/200 μl, which were seeded. Incubation was carried out overnight at 37° C. Afterwards, cells were transiently transfected. Plasmid DNA of hCMKLR1_eYFP_GαΔ6qi4myr_pV2 (0.9 μg) and mCherry_Arr3_pcDNA3 (0.1 μg) and 8 μl Lipofectamine were separately added to 100 μl DMEM/Ham's F12 and incubated for 10 min before unification and incubation at RT for 20 min. Incubation was carried out overnight at 37° C. […] The medium was replaced by 200 μl of OptiMEM and the to status was documented. The OptiMEM was then replaced by 200 μl of 1 μM peptide in OptiMEM. Fluorophore excitation was analyzed using different filters, depending on the emission wavelength of the fluorophore and the time of exposure was adjusted to each fluorophore individually. All images were processed identically with the AxioVision software (Carl Zeiss AG, Oberkochen, Germany).
To verify the arrestin-recruitment and analyze the internalization of the CMKLR1 receptor itself, HEK293 cells were used and transiently transfected with fluorescent labeled variants of the two molecules.
FIG. 2: Internalization of CMKLR1 and arrestin 3 recruitment. HEK293 cells expressing the hCMKLR1 (green) and arrestin 3 (Arr3; red) due to transient transfection were used for the internalization studies.

in vitro = settings: human, plasma
Method: Investigation of peptide stability in blood plasma was carried out as described previously. […] Samples taken at the respective time points were added to a solution of 0.1% SDS in ACN/EtOH (1:1). After incubation at −20° C. for 20 min, the supernatant was transferred to a new tube and incubated again at −20° C. for at least 3 h. The solution was filtered by centrifugation using Costar Spin-X tubes (0.22 μm) and the filtrate was analyzed by RP-HPLC on a VariTide RPC. […] Peaks were integrated and the peak containing the intact peptide was normalized to the sample taken at t=0 min (100%).

half-life (in vitro) | SMILES | G protein signaling activity (in words) (CMKLR1 [1]; Ca2+ mobilization assay) | EC50 (CMKLR1 [1]; pEC50 ± SEM, COS-7 cells transfected with hCMKLR1_eYFP_GαΔ6qi4myr, normalized to chemerin-9) | arrestin 3 recruitment to the CMKLR1 (in words) (CMKLR1 [2]) | arrestin 3 recruitment and internalization of the CMKLR1 (CMKLR1 [3])
 | C[C@@H]1NC(=O)[C@H](Cc2ccccc2)NC(=O)[C@H](CCC(N)=O)NC(=O)[C@H](NC(=O)[C@@H]2CCCN2C(=O)[C@H](Cc2ccccc2)NC(=O)[C@H](N)Cc2ccc(O)cc2)CCSSC[C@@H](C(=O)O)NC(=O)[C@H](Cc2c[nH]c3ccccc23)NC1=O [$$ 15, [y1,x4,W8,C9]-chemerin-9] (H-[dY]FP[d(hCys)]QFAWC-OH; disulfide 4-9) | significantly decreased activity | 207 nM | no longer able to induce arrestin 3-recruitment; also recorded: completely abolishes arrestin recruitment | neither internalization of the hCMKLR1 nor arrestin 3 recruitment could be detected
< 12 min | C[C@H](NC(=O)[C@H](Cc1ccccc1)NC(=O)[C@H](CCC(N)=O)NC(=O)CNC(=O)[C@@H]1CCCN1C(=O)[C@H](Cc1ccccc1)NC(=O)[C@H](Cc1ccc(O)cc1)NC(=O)c1ccc(C(=O)O)c(-c2c3ccc(=[N+](C)C)cc-3oc3cc(N(C)C)ccc23)c1)C(=O)N[C@@H](Cc1ccccc1)C(=O)N[C@@H](CO)C(=O)O [$$ 2, Tam-chemerin-9] |  |  |  | 
